Patent US9718774B2, “Indole carboxamide derivatives as P2X7 receptor antagonist” (ACTELION PHARMACEUTICALS LTD, priority 2012, dated 2017)

Target: T1, human recombinant P2X7 receptor (Homo sapiens, UniProt Q99572)
T1 construct: expressed in transfected cells
T1 sequence (Q99572 1-595): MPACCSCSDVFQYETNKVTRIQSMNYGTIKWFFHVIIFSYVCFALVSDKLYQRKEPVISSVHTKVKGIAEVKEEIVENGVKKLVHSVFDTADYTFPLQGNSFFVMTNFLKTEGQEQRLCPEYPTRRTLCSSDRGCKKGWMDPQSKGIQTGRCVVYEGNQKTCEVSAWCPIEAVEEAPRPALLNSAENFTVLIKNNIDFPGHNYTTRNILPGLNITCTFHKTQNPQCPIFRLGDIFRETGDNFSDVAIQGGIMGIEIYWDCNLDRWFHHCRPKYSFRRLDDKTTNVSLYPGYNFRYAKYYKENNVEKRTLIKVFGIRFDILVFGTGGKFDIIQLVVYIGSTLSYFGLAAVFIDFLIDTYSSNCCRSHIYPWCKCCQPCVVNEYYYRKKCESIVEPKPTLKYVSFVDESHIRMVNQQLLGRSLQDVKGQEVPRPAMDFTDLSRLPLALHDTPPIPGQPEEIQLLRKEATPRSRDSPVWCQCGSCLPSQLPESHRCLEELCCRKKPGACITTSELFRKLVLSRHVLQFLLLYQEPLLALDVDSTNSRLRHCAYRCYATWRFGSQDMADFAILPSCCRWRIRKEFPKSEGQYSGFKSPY
Assay: YO-PRO assay: P2X7 receptor antagonistic activity in HEK cells stably expressing P2X7
Assay type: cell-based
Settings: antagonistic activity with respect to the P2X7 receptor, read-out: IC50
Experimental: The P2X7 receptor antagonistic activity of the compounds of formula (I) is determined in accordance with the following experimental method.
Cell Line Generation and YO-PRO Assay
Cell line generation was performed in general according to established molecular cloning protocols. Specifically, RNA was extracted from human whole blood using the Qiagen RNeasy kit (Qiagen, CH) according to the manufacturer's instructions. Subsequently cDNA was made (Superscript II, Invitrogen AG, CH) and the human P2X7 gene (genbank ref. BC011913) was amplified with the following primers: […] and […]. The amplified sequence was subsequently ligated into a pcDNA3.1 (+) NotI, NheI digested plasmid. Human embryonic kidney (HEK) cells (ATCC CRL—1573, Manassas, Va., USA) were transfected with the pcDNA3.1 (+).hP2X7 plasmid using lipofectamine 2000 (Invitrogen AG, CH) according to the manufacturer's instructions. Following a 24 h exposure to DNA, cells were trypsinized and re-seeded at low density in the presence of 250 μg Geneticin. Geneticin resistant cells were then selected during two consecutive rounds of cloning by serial limiting dilution with visual inspection. Individual clones were screened for P2X7 expression by applying ATP and recording the resultant uptake of YO-PRO1. Specific cell clones were chosen based on RNA and protein expression. HEK cells stably expressing P2X7 were used to screen drugs using the YO-PRO1 assay. Cells were grown to confluency in adherent culture at 37° C. in a humidified 5% CO2 incubator (split 1/5 every 3-4 days with DMEM, 10% FCS, 1% Penicillin/Streptomycin, 250 μg/ml Geneticin). Adherent cells were detached by incubation with Trypsine (1 ml per 165 cm^2 dish) for 2 minutes, then washed off with 10 ml PBS (without Mg^2+ and Ca^2+), and resuspended in DMEM, 10% FCS, 1% Penicillin/Streptomycin, no Geneticin. 10′000 cells per well (48 hours before the assay) or 25′000 cells per well (Vi-cell XR (Beckman Coulter) (24 hours before the assay) in 50 μl full medium were seeded on 384-well black-wall, clear bottom plates, that were coated before with 10 μl per well Poly-L-Lysine, incubated for 30-60 minutes at 37° C. and washed once with PBS. Medium was removed from cells and 50 μl of assay buffer containing 0.5 μM YO-PRO-1 was added into the wells. Solutions of antagonist compounds were prepared by serial dilutions of a 10 mM DMSO solution of the antagonist into PBS using a BioMek (Beckman Coulter). Each concentration was performed in duplicate. For IC50 measurements 10 concentration points were measured (10 μM being the highest concentration followed by 9 serial dilution steps 1/3). The cells were incubated with the antagonists of the present invention together with ATP at a final concentration of 250 μM for 90 minutes. During this time period, four time points were taken. Each time point comprised the average of several measurements made within a few seconds. Fluorescence was measured in the FLIPR tetra (Molecular Devices) using the filters appropriate for YO-PRO-1 fluorescence (excitation 485/20, emission 530/25). The FLIPR tetra was equipped with Molecular Devices Screen Works system control software to define and run experimental protocols. […] For IC50 measurements the maximum intensity is plotted against the concentration of compound to determine IC50 values.

| SMILES | IC50 [nM] |
| --- | --- |
| Cc1ncc(C(CNC(=O)c2ccc3[nH]ccc3c2Cl)N(C)C)cn1 (racemic) [Example 12, rac-4-Chloro-1H-indole-5-carboxylic acid [2-dimethylamino-2-(2-methyl-pyrimidin-5-yl)-ethyl]-amide] | 2300 |
| O=C(NCC(c1ccc(Oc2ccccc2)cc1)N1CCOCC1)c1ccc2[nH]ccc2c1Cl (racemic) [Example 58, rac-4-Chloro-1H-indole-5-carboxylic acid [2-morpholin-4-yl-2-(4-phenoxy-phenyl)-ethyl]-amide] | 102 |
| Cc1ncc(C(CNC(=O)c2ccc3[nH]ccc3c2Cl)N(C)CC(C)C)cn1 (racemic) [Example 86, rac-4-Chloro-1H-indole-5-carboxylic acid [2-(isobutyl-methyl-amino)-2-(2-methyl-pyrimidin-5-yl)-ethyl]-amide] | 280 |
| Cc1ncc(C(CNC(=O)c2ccc3[nH]ccc3c2Cl)N2CCCC(F)(F)C2)cn1 (racemic) [Example 79, rac-4-Chloro-1H-indole-5-carboxylic acid [2-(3,3-difluoro-piperidin-1-yl)-2-(2-methyl-pyrimidin-5-yl)-ethyl]-amide] | 9.3 |
| O=C(NCC(c1ccc(Cl)nc1)C1CCCCC1)c1ccc2[nH]ccc2c1Cl (racemic) [Example 65, rac-4-Chloro-1H-indole-5-carboxylic acid [2-(6-chloro-pyridin-3-yl)-2-cyclohexyl-ethyl]-amide] | 76 |
| Cc1ncc(C(CNC(=O)c2ccc3[nH]c(C)cc3c2Cl)N2CCOCC2)cn1 (racemic) [Example 72, rac-4-Chloro-2-methyl-1H-indole-5-carboxylic acid [2-(2-methyl-pyrimidin-5-yl)-2-morpholin-4-yl-ethyl]-amide] | 463 |
| O=C(NCC(c1ccc(OC(F)(F)F)cc1)N1CCOCC1)c1ccc2[nH]ccc2c1Cl (racemic) [Example 48, rac-4-Chloro-1H-indole-5-carboxylic acid [2-morpholin-4-yl-2-(4-trifluoromethoxy-phenyl)-ethyl]-amide] | 134 |
| COc1cc(C(=O)NCC(c2cnc(C)nc2)N2CCOCC2)c(Cl)c2cc[nH]c12 (single isomer, unassigned) [Example 115, 4-Chloro-7-methoxy-1H-indole-5-carboxylic acid [2-(2-methyl-pyrimidin-5-yl)-2-morpholin-4-yl-ethyl]-amide] | 8.2 |
| O=C(NCC(c1ccnc(O)c1)N1CCCCC1)c1ccc2[nH]ccc2c1Cl (racemic) [Example 74, rac-4-Chloro-1H-indole-5-carboxylic acid [2-(2-hydroxypyridin-4-yl)-2-piperidin-1-yl-ethyl]-amide] | 193 |
| O=C(NCC(c1ccc(Cl)cc1Cl)N1CCOCC1)c1ccc2[nH]ccc2c1Cl (racemic) [Example 39, rac-4-Chloro-1H-indole-5-carboxylic acid [2-(2,4-dichloro-phenyl)-2-morpholin-4-yl-ethyl]-amide] | 455 |
| Cc1ncc(C(CNC(=O)c2ccc3[nH]ccc3c2Cl)N2CC(C)OC(C)C2)cn1 (single isomer, unassigned) [Example 42, 4-Chloro-1H-indole-5-carboxylic acid [2-(2,6-dimethyl-morpholin-4-yl)-2-(2-methyl-pyrimidin-5-yl)-ethyl]-amide] | 36 |
| O=C(NCC(c1cccc(F)c1)N1CCOCC1)c1ccc2[nH]ccc2c1Cl (racemic) [Example 37, rac-4-Chloro-1H-indole-5-carboxylic acid [2-(3-fluoro-phenyl)-2-morpholin-4-yl-ethyl]-amide] | 32 |
| Cc1ncc(C(CNC(=O)c2cc(C)c3[nH]ccc3c2Cl)N2CCOCC2)cn1 (single isomer, unassigned) [Example 96, 4-Chloro-7-methyl-1H-indole-5-carboxylic acid [2-(2-methyl-pyrimidin-5-yl)-2-morpholin-4-yl-ethyl]-amide] | 9.6 |
| Cc1ncc(C(CNC(=O)c2ccc3[nH]ccc3c2Cl)C2CCC(F)(F)CC2)cn1 (racemic) [Example 93, rac-4-Chloro-1H-indole-5-carboxylic acid [2-(4,4-difluoro-cyclohexyl)-2-(2-methyl-pyrimidin-5-yl)-ethyl]-amide] | 12 |
| O=C(NCC(c1ccc(F)c(F)c1)N1CCCCC1)c1ccc2[nH]ccc2c1Cl (racemic) [Example 45, rac-4-Chloro-1H-indole-5-carboxylic acid [2-(3,4-difluoro-phenyl)-2-piperidin-1-yl-ethyl]-amide] | 83 |
| Cc1ncc(C(CNC(=O)c2ccc3[nH]ccc3c2Cl)N2CCC(F)CC2)cn1 (racemic) [Example 78, rac-4-Chloro-1H-indole-5-carboxylic acid [2-(4-fluoro-piperidin-1-yl)-2-(2-methyl-pyrimidin-5-yl)-ethyl]-amide] | 12 |
| Cc1ncc(C(CNC(=O)c2cc(Cl)c3[nH]ccc3c2C)N2CCOCC2)cn1 (racemic) [Example 108, rac-7-Chloro-4-methyl-1H-indole-5-carboxylic acid [2-(2-methyl-pyrimidin-5-yl)-2-morpholin-4-yl-ethyl]-amide] | 11 |
| O=C(NCC(c1ccccc1F)N1CCOCC1)c1ccc2[nH]ccc2c1Cl (racemic) [Example 35, rac-4-Chloro-1H-indole-5-carboxylic acid [2-(2-fluoro-phenyl)-2-morpholin-4-yl-ethyl]-amide] | 161 |
| Cc1ncc(C(CNC(=O)c2cc(C(C)(C)O)c3[nH]ccc3c2Cl)N2CCOCC2)cn1 (racemic) [Example 116, rac-4-Chloro-7-(1-hydroxy-1-methyl-ethyl)-1H-indole-5-carboxylic acid [2-(2-methyl-pyrimidin-5-yl)-2-morpholin-4-yl-ethyl]-amide] | 149 |
| CS(=O)(=O)N1CCC(C(CNC(=O)c2ccc3[nH]ccc3c2Cl)c2cccnc2)CC1 (racemic) [Example 23, rac-4-Chloro-1H-indole-5-carboxylic acid [2-(1-methanesulfonyl-piperidin-4-yl)-2-pyridin-3-yl-ethyl]-amide] | 56 |
| Cc1ncc(C(CNC(=O)c2cc(OCCOC(C)(C)C)c3[nH]ccc3c2Cl)N2CCOCC2)cn1 (racemic) [Example 112, rac-7-(2-tert-Butoxy-ethoxy)-4-chloro-1H-indole-5-carboxylic acid [2-(2-methyl-pyrimidin-5-yl)-2-morpholin-4-yl-ethyl]-amide] | 32 |
| CCc1cc(C(=O)NCC(c2cnc(C)nc2)N2CCOCC2)c(Cl)c2cc[nH]c12 (single isomer, unassigned) [Example 119, 4-Chloro-7-ethyl-1H-indole-5-carboxylic acid [2-(2-methyl-pyrimidin-5-yl)-2-morpholin-4-yl-ethyl]-amide] | 16 |
| Cc1ncc(C(CNC(=O)c2ccc3[nH]ccc3c2C)N2CCOCC2)cn1 (single isomer, unassigned) [Example 106, 4-Methyl-1H-indole-5-carboxylic acid [2-(2-methyl-pyrimidin-5-yl)-2-morpholin-4-yl-ethyl]-amide] | 25 |
| Cc1ncc(C(CNC(=O)c2ccc3[nH]ccc3c2Cl)OC2CCCCC2)cn1 (racemic) [Example 69, rac-4-Chloro-1H-indole-5-carboxylic acid [2-cyclohexyloxy-2-(2-methyl-pyrimidin-5-yl)-ethyl]-amide] | 61 |
